What was measured:
Assay in all cases: NCI-60 in vitro drug sensitivity testing (SRB)
Format in all cases: cell-based
OVCAR-3 = details: Homo sapiens, OVCAR-3, read-out: GDC-0941 GI50
Excerpt: (§1) Cell lines used in this study were obtained from the National Cancer Institute Developmental Therapeutics program (NCI DTP) and were maintained in RPMI 1640 media (Invitrogen, Grand Island, N.Y.) containing 10% Fetal Bovine Serum (ATCC, Manassas, Va.). Cell lines were used within six months of receipt from the NCI DTP, abrogating the need for reauthentication.
(§2) 14, 2010 and Aug. 9, 2010.

UO-31 = details: Homo sapiens, UO-31, read-out: GDC-0941 GI50
Excerpt: as §1, §2

SK-MEL-2 = details: Homo sapiens, SK-MEL-2, read-out: GDC-0941 GI50
Excerpt: as §1, §2

SN12C = details: Homo sapiens, read-out: GDC-0941 GI50
Excerpt: as §1, §2

MALME-3M = details: Homo sapiens, read-out: GDC-0941 GI50
Excerpt: as §1, §2

MDA-MB-435 = details: Homo sapiens, MDA-MB-435, read-out: GDC-0941 GI50
Excerpt: as §1, §2

HCT-116 = details: Homo sapiens, HCT-116, read-out: GDC-0941 GI50
Excerpt: as §1, §2

RPMI-8226 = details: Homo sapiens, RPMI-8226, read-out: GDC-0941 GI50
Excerpt: as §1, §2

MOLT-4 = details: Homo sapiens, MOLT-4, read-out: GDC-0941 GI50
Excerpt: as §1, §2

NCI/ADR-RES = details: Homo sapiens, read-out: GDC-0941 GI50
Excerpt: as §1, §2

SK-MEL-5 = details: Homo sapiens, SK-MEL-5, read-out: GDC-0941 GI50
Excerpt: as §1, §2

KM12 = details: Homo sapiens, KM12, read-out: GDC-0941 GI50
Excerpt: as §1, §2

HS 578T = details: Homo sapiens, read-out: GDC-0941 GI50
Excerpt: as §1, §2

SK-MEL-28 = details: Homo sapiens, SK-MEL-28, read-out: GDC-0941 GI50
Excerpt: as §1, §2

NCI-H226 = details: Homo sapiens, NCI-H226, read-out: GDC-0941 GI50
Excerpt: as §1, §2

HL-60(TB) = details: Homo sapiens, read-out: GDC-0941 GI50
Excerpt: as §1, §2

LOX IMVI = details: Homo sapiens, read-out: GDC-0941 GI50
Excerpt: as §1, §2

NCI-H23 = details: Homo sapiens, NCI-H23, read-out: GDC-0941 GI50
Excerpt: as §1, §2

SF-268 = details: Homo sapiens, SF-268, read-out: GDC-0941 GI50
Excerpt: as §1, §2

RXF 393 = details: Homo sapiens, RXF 393, read-out: GDC-0941 GI50
Excerpt: as §1, §2

SNB-19 = details: Homo sapiens, SNB-19, read-out: GDC-0941 GI50
Excerpt: as §1, §2

HCC-2998 = details: Homo sapiens, read-out: GDC-0941 GI50
Excerpt: as §1, §2

SF-539 = details: Homo sapiens, SF-539, read-out: GDC-0941 GI50
Excerpt: as §1, §2

CAKI-1 = details: Homo sapiens, CAKI-1, read-out: GDC-0941 GI50
Excerpt: as §1, §2

ACHN = details: Homo sapiens, read-out: GDC-0941 GI50
Excerpt: as §1, §2

HOP-92 = details: Homo sapiens, HOP-92, read-out: GDC-0941 GI50
Excerpt: as §1, §2

NCI-H322M = details: Homo sapiens, read-out: GDC-0941 GI50
Excerpt: as §1, §2

EKVX = details: Homo sapiens, read-out: GDC-0941 GI50
Excerpt: as §1, §2

COLO 205 = details: Homo sapiens, COLO 205, read-out: GDC-0941 GI50
Excerpt: as §1, §2

CCRF-CEM = details: Homo sapiens, read-out: GDC-0941 GI50
Excerpt: as §1, §2

UACC-62 = details: Homo sapiens, UACC-62, read-out: GDC-0941 GI50
Excerpt: as §1, §2

`CS(=O)(=O)N1CCN(Cc2cc3nc(-c4cccc5[nH]ncc45)nc(N4CCOCC4)c3s2)CC1` [GDC-0941] showed a GI50 (OVCAR-3) of 126 nM, a GI50 (UO-31) of 78 nM and a GI50 (SK-MEL-2) of 759 nM. For the same compound, the GI50 (SN12C) was 229 nM, the GI50 (MALME-3M) was 138 nM and the GI50 (MDA-MB-435) was 204 nM. It also gave a GI50 (HCT-116) of 692 nM, a GI50 (RPMI-8226) of 3470 nM and a GI50 (MOLT-4) of 155 nM. It also gave a GI50 (NCI/ADR-RES) of 2040 nM, a GI50 (SK-MEL-5) of 1290 nM and a GI50 (KM12) of 708 nM. It also gave a GI50 (HS 578T) of 71 nM, a GI50 (SK-MEL-28) of 617 nM and a GI50 (NCI-H226) of 1230 nM. For the same compound, the GI50 (HL-60(TB)) was 58 nM, the GI50 (LOX IMVI) was 708 nM and the GI50 (NCI-H23) was 2290 nM. For the same compound, the GI50 (SF-268) was 741 nM, the GI50 (RXF 393) was 251 nM and the GI50 (SNB-19) was 1150 nM. It also gave a GI50 (HCC-2998) of 1320 nM, a GI50 (SF-539) of 251 nM and a GI50 (CAKI-1) of 178 nM. For the same compound, the GI50 (ACHN) was 162 nM, the GI50 (HOP-92) was 83 nM and the GI50 (NCI-H322M) was 209 nM. The GI50 (EKVX) was 195 nM, the GI50 (COLO 205) was 269 nM and the GI50 (CCRF-CEM) was 2340 nM. For the same compound, the GI50 (UACC-62) was 112 nM.
